Experimental findings from the PolyMetriX glass transition set are described below.

For the compound `*C(=O)c1ccc2c(c1)C(=O)N(c1ccc(Oc3ccc(C(=O)c4ccc(Oc5ccc(C(=O)c6ccc(Oc7ccc(N8C(=O)c9ccc(*)cc9C8=O)cc7)cc6)cc5)cc4)cc3)cc1)C2=O` (repeat unit), the glass transition temperature was 215.00 °C. The result for `*C(=O)c1ccc2c(c1)C(=O)N(c1ccc(Oc3ccc(C(=O)c4ccc(Oc5ccc(N6C(=O)c7ccc(*)cc7C6=O)cc5)cc4)cc3)cc1)C2=O` (repeat unit) reads 252.00 °C; that for `*CCCCCCCCCCCN1C(=O)c2ccc(C(=O)Oc3ccc(-c4ccc(OC(=O)c5ccc6c(c5)C(=O)N(*)C6=O)cc4)cc3)cc2C1=O` (repeat unit), 97.00 °C. The result for `*OP(=O)(Oc1c(Cl)cc(Cl)cc1Cl)Oc1c(Cl)c(Cl)c(*)c(Cl)c1Cl` (repeat unit) reads 127.00 °C. Turning to `*OP(=O)(Oc1c(Cl)cccc1Cl)Oc1c(Cl)c(Cl)c(*)c(Cl)c1Cl` (repeat unit), the glass transition temperature came to 144.00 °C. As to `*OP(=O)(Oc1ccc(C)cc1)Oc1c(Br)cc(C(c2cc(Br)c(*)c(Br)c2)(C(F)(F)F)C(F)(F)F)cc1Br` (repeat unit), the glass transition temperature is 146.00 °C. The result for `*OP(=O)(Oc1ccc(OC)cc1)Oc1c(C)cc(S(=O)(=O)c2cc(C)c(*)c(C)c2)cc1C` (repeat unit) reads 147.00 °C. As for `*OP(=O)(Oc1ccccc1)Oc1ccc(-c2ccc(*)cc2)cc1` (repeat unit), the glass transition temperature is 112.00 °C. With `*O[Si](*)(C)CCCCCCCCCCC(F)(F)C(F)(F)C(F)(F)C(F)(F)C(F)(F)C(F)(F)C(F)(F)C(F)(F)F` (repeat unit) the figure was -78.00 °C; with `*O[Si](*)(C)CCCCCCCCCCCOC(=O)c1cc(OC(=O)c2ccc(OCCOCCOCCOCCOCCOCCOCCOCCOC)cc2)ccc1OC(=O)c1ccc(OCCOCCOCCOCCOCCOCCOCCOCCOC)cc1` (repeat unit), -56.00 °C; with `*O[Si](*)(C)CCCCCCCCCCCOc1ccc(C(=O)OC/C=C(\C)CCC=C(C)C)cc1` (repeat unit), 25.00 °C. On to `*O[Si](*)(C)CCCCCCOc1ccc(C(=O)Oc2ccc(C#N)cc2)cc1` (repeat unit), for which the glass transition temperature amounted to 8.00 °C. The result for `*O[Si](*)(C)CCCCCCOc1ccc(C(=O)Oc2ccc(C(=O)Oc3ccc(C=C(C(=O)OCCCCCCCCC)C(=O)OCCCCCCCCC)cc3)cc2)cc1` (repeat unit) reads -5.00 °C; that for `*O[Si](*)(C)CCCCCCOc1ccc(C(=O)Oc2ccc(OCCCCCC)cc2)cc1` (repeat unit), 12.00 °C; that for `*O[Si](*)(C)CCCCOc1ccc(C(=O)Oc2ccc(C#N)cc2)cc1` (repeat unit), 16.00 °C. With `*O[Si](*)(C)CCCOCC1COC(=O)O1` (repeat unit) the figure was -25.90 °C; with `*O[Si](*)(C)CCCOc1ccc(-c2ccc(C#N)cc2)cc1` (repeat unit), 38.00 °C; with `*O[Si](*)(C)CCCOc1ccc(-c2ccc(OC(=O)CCCCC(=O)OC3CC(C)CCC3C(C)C)cc2)cc1` (repeat unit), 43.30 °C.

Take `*O[Si](*)(C)CCCOc1ccc(C(=O)Oc2ccc(-c3ccc(OC(=O)c4cc(OCC(C)CC)c(OCC(C)CC)c(OCC(C)CC)c4)cc3)cc2)cc1` (repeat unit): the glass transition temperature is 60.00 °C. With `*O[Si](*)(C)CCCOc1ccc(C(=O)Oc2ccc(-c3ccc(OC(=O)c4cc(OCC)c(OCC)c(OCC)c4)cc3)cc2)cc1` (repeat unit) the figure was 61.30 °C; with `*O[Si](*)(C)CCCOc1ccc(C(=O)Oc2ccc(-c3ccc(OC(=O)c4cc(OCC)cc(OCC)c4)cc3)cc2)cc1` (repeat unit), 62.80 °C. Consider `*O[Si](*)(C)CCCOc1ccc(C(=O)Oc2ccc(-c3ccc(OC(=O)c4cc(OCCCCC)c(OCCCCC)c(OCCCCC)c4)cc3)cc2)cc1` (repeat unit), for which the glass transition temperature turned out to be 49.00 °C. `*O[Si](*)(C)CCCOc1ccc(C(=O)Oc2ccc(C#N)cc2)cc1` (repeat unit) showed a glass transition temperature of 57.00 °C. As to `*O[Si](*)(C)CCCOc1ccc(C(=O)Oc2ccc(C(=O)Oc3ccc(OC)cc3)cc2)cc1` (repeat unit), the glass transition temperature was found to be 38.00 °C.

As for `*O[Si](*)(C)CCCOc1ccc(C(=O)Oc2ccc(OC)cc2)cc1` (repeat unit), the glass transition temperature is 37.00 °C. With `*O[Si](*)(C)CCCOc1ccc(C(=O)Oc2ccc(OCCCCCC)cc2)cc1` (repeat unit) the figure was 15.00 °C.

With `*O[Si](*)(C)CCCOc1ccc2c(c1)c1cc(-c3ccc4c(c3)c3ccccc3n4CC(CC)CCCC)ccc1n2CC(CC)CCCC` (repeat unit), the glass transition temperature was determined as 129.00 °C. With `*O[Si](*)(C)CC[Si](C)(C)O[Si](C)(C)CCCOc1cc(OC(=O)c2ccc(OCCCC)cc2)ccc1/N=N/c1ccc(OCCCC)cc1` (repeat unit) the figure was -4.00 °C; with `*O[Si](*)(C)CC[Si](OCCOC)(OCCOC)OCCOC` (repeat unit), 28.90 °C.

Compound `*O[Si](*)(C)CCc1cc(C(=O)Oc2ccc(OC)cc2)ccc1C(=O)Oc1ccc(OC)cc1` (repeat unit) registered a glass transition temperature of 111.00 °C.

In the case of `*O[Si](*)(C)CCc1ccc(O)cc1` (repeat unit), the glass transition temperature turned out to be 39.00 °C. With `*O[Si](*)(CCCOCCOCCOCCOC)CCCOCCOCCOCCOC` (repeat unit) the figure was -69.20 °C. The result for `*O[Si](*)(CCCOCCOCCOCCOCCOCCOCCOCCOC)CCCOCCOCCOCCOCCOCCOCCOCCOC` (repeat unit) reads -66.40 °C. As for `*O[Si](c1ccccc1)(c1ccccc1)c1ccc(-c2ccc([Si](*)(c3ccccc3)c3ccccc3)cc2)cc1` (repeat unit), the glass transition temperature was found to be 94.00 °C. With `*O[Si](c1ccccc1)(c1ccccc1)c1ccc([Si](*)(c2ccccc2)c2ccccc2)cc1` (repeat unit) the figure was 130.00 °C. With `*Oc1c(-c2ccccc2)cc(*)cc1-c1ccccc1` (repeat unit) the figure was 220.00 °C. `*Oc1c(C)cc(*)cc1-c1ccccc1` (repeat unit) had a glass transition temperature of 180.00 °C. With `*Oc1c(Cl)cc(*)cc1Cl` (repeat unit) the figure was 176.82 °C.

`*Oc1c(Cl)cc(C(c2cc(Cl)c(OC(*)=O)c(Cl)c2)C2CC3CCC2C3)cc1Cl` (repeat unit) had a glass transition temperature of 270.00 °C.

On to `*Oc1c(Cl)cc(C2(c3cc(Cl)c(OC(*)=O)c(Cl)c3)CCCCC2)cc1Cl` (repeat unit), for which the glass transition temperature was 163.00 °C. As for `*Oc1cc2ccccc2cc1OC(=O)c1ccc(Oc2ccc(C(*)=O)cc2)cc1` (repeat unit), the glass transition temperature was 148.00 °C. With `*Oc1ccc(-c2ccc(OC(=O)c3ccc(C(=O)c4ccc(C(*)=O)cc4)cc3)c(-c3ccccc3)c2)cc1-c1ccccc1` (repeat unit) the figure was 184.50 °C. The result for `*Oc1ccc(-c2ccc(OC3(F)C(*)(F)C(F)(F)C3(F)F)cc2)cc1` (repeat unit) reads 161.00 °C. `*Oc1ccc(-c2ccc(Oc3c(F)c(F)c(COC(c4cccc(C(OCc5c(F)c(F)c(*)c(F)c5F)(C(F)(F)F)C(F)(F)F)c4)(C(F)(F)F)C(F)(F)F)c(F)c3F)cc2)cc1` (repeat unit): the glass transition temperature came out at 110.00 °C. With `*Oc1ccc(C(=O)c2ccc(Oc3ccc(C4(c5ccc(*)cc5)c5ccccc5-c5ccccc54)cc3)cc2)c2ccccc12` (repeat unit) the figure was 260.00 °C; with `*Oc1ccc(C(c2ccc(Oc3ccc(C(=O)C(=O)c4ccc(*)cc4)cc3)cc2)(C(F)(F)F)C(F)(F)F)cc1` (repeat unit), 162.00 °C; with `*Oc1ccc(C2(c3ccc(Oc4ccc(C(=O)c5ccc(*)cc5)cc4)cc3)CCC3CCCCC3C2)cc1` (repeat unit), 214.00 °C. With `*Oc1ccc(Oc2ccc(Oc3cccc(C(=O)Oc4ccc(-c5ccc(OC(=O)c6cccc(*)c6)cc5)cc4)c3)cc2)cc1` (repeat unit) the figure was 119.00 °C; with `*Oc1ccc(S(=O)(=O)c2ccc(Oc3ccc(-c4ccc(*)cc4)cc3)cc2N)c(N)c1` (repeat unit), 242.20 °C; with `*c1cc(Br)c(OC(=O)c2ccc(C(=O)Oc3c(Br)cc(C4(*)OC(=O)c5ccccc54)cc3Br)cc2)c(Br)c1` (repeat unit), 319.00 °C. With `*c1ccc(-c2ccc(-c3ccc4nc(Oc5cc(-c6ccccc6)c6cc(*)ccc6n5)cc(-c5ccccc5)c4c3)cc2)cc1` (repeat unit) the figure was 308.00 °C; with `*c1ccc(-c2ccc3nc(Oc4cc(-c5ccccc5)c5cc(*)ccc5n4)cc(-c4ccccc4)c3c2)cc1` (repeat unit), 300.00 °C. As to `*c1ccc(Oc2ccc(-c3ccc(Oc4ccc(N5C(=O)c6ccc(Oc7cc8ccccc8cc7Oc7ccc8c(c7)C(=O)N(*)C8=O)cc6C5=O)cc4)cc3)cc2)cc1` (repeat unit), the glass transition temperature was 222.50 °C. The result for `*c1ccc(Oc2ccc(C(=O)c3ccc(Oc4ccc(N5C(=O)c6ccc(-c7ccc8c(c7)C(=O)N(*)C8=O)cc6C5=O)cc4)cc3)cc2)cc1` (repeat unit) reads 253.00 °C. The result for `*c1ccc(Oc2ccc(C(=O)c3ccc(Oc4ccc(N5C(=O)c6ccc(Oc7ccc8c(c7)C(=O)N(*)C8=O)cc6C5=O)cc4)cc3)cc2)cc1` (repeat unit) reads 243.00 °C; that for `*c1ccc(Oc2ccc(C(=O)c3ccc(Oc4ccc(N5C(=O)c6ccc(Oc7cccc(Oc8ccc9c(c8)C(=O)N(*)C9=O)c7)cc6C5=O)cc4)cc3)cc2)cc1` (repeat unit), 201.00 °C.

Take `*c1ccc(Oc2cccc(Oc3ccc(N4C(=O)c5ccc(Oc6cc7ccccc7cc6Oc6ccc7c(c6)C(=O)N(*)C7=O)cc5C4=O)cc3)c2)cc1` (repeat unit): the glass transition temperature stood at 208.00 °C. With `*c1ccc(Oc2ccccc2Oc2ccc(N3C(=O)c4ccc(Oc5cc6ccccc6cc5Oc5ccc6c(c5)C(=O)N(*)C6=O)cc4C3=O)cc2)cc1` (repeat unit) the figure was 204.00 °C.
